Values after ≈ are worked out from the molar mass of the structure shown. Starred links: 1 amine or outer side, 2 acyl side, 3 side chain; linkers in the order of their positions; H or OH if unused. Positions of bridges follow the written chain, without caps; N, C: chain ends. Non-standard residues stand in square brackets, D forms with d. Residues, ends and D or L forms follow the SMILES beside them. *: point of attachment. X2 = CC(C)[C@H](C)[C@@H](C(=O)[*:2])N(C)[*:1]; d(cisHyp) = O=C(O)[C@H]1C[C@@H](O)CN1; X1 = CC(C)C(C)C(C(=O)[*:2])N(C)[*:1]; Picolinoyl(3-OH) = O=C(c1ncccc1O)*; NMePhg = CN[CH](C(=O)O)c1ccccc1; Hyp = O=C(O)[CH]1C[CH](O)CN1; Abu = CC[CH](N)C(=O)O; Sar = CNCC(=O)O
How the values were obtained:
[1] = test system: Mycoplasma gallisepticum KP13; experiment: MIC, dilution method, Mycoplasma; format: cell-based; design: unit not given beside the values; details: Table 4; PPLO enrichment broth (Eiken)
Experimental: (§1) The MIC were determined by the dilution method.
Medium (1): PPLO enrichment broth (Eiken, Japan)
(§2) was tested in vitro agains several Mycoplasma strains.

[2] = test system: Bacillus subtilis ATCC 6633; experiment: MIC, tube dilution method; format: cell-based; details: BHI broth
[3] = test system: Staphylococcus aureus; experiment: MIC, tube dilution method; format: cell-based; details: BHI broth
[4] = test system: Diplococcus pneumoniac type 1; experiment: MIC, tube dilution method; format: cell-based, Diplococcus pneumoniae; details: BHI broth containing 10% horse blood
[5] = test system: Salmonella gallinanum; experiment: MIC, tube dilution method; format: cell-based; details: BHI broth
[6] = test system: Escherichia coli; experiment: MIC, tube dilution method; format: cell-based; details: BHI broth
[7] = test system: Streptococcus pyogenes; experiment: MIC, tube dilution method; format: cell-based; details: BHI broth containing 10% horse blood
[8] = test system: Staphylococcus aureus; experiment: MIC repeated with a far lower dilution rate; format: cell-based; details: far lower dilution rate, brain heart infusion broth
From the text: This MIC experiment was based on the two-fold dilutions. To differentiate neoviridogrisein II and viridogrisein in their antibiotic activity, the MIC determination was repeated with a far lower dilution rate.
Medium: brain heart infusion broth

[9] = test system: Proteus vulgaris; experiment: MIC, tube dilution method; format: cell-based; details: BHI broth
[10] = test system: Staphylococcus sp.; experiment: MIC, tube dilution method; format: cell-based; details: BHI broth
[11] = test system: Sarcina lutea; experiment: MIC, tube dilution method (incl. synergism with griseoviridin); format: cell-based; details: Table 1; BHI broth
[12] = test system: Mycoplasma pulmonis PG 22; experiment: MIC, dilution method, Mycoplasma; format: cell-based; details: Table 4; PPLO broth (Chanock's medium; Difco)
Experimental: as §1
(§3) (2): PPLO broth (Chanock's medium; Difco)
as §2

[13] = test system: Mycoplasma fermentans; experiment: MIC, dilution method, Mycoplasma; format: cell-based; details: Table 4; PPLO broth (Chanock's medium; Difco)
Experimental: as §1, §3, §2

[14] = test system: Mycoplasma agalactiae PG 2; experiment: MIC, dilution method, Mycoplasma; format: cell-based; details: Table 4; PPLO broth (Chanock's medium; Difco)
Experimental: as §1, §3, §2

[15] = test system: Pseudeomonas aeruginosa; experiment: MIC, tube dilution method; format: cell-based; details: BHI broth
[16] = Solubility in solvents; format: physicochemical; details: for solubility in organic solvents: methanol, ethanol, propanols, n-butanol, dioxane, acetates, ketones, benzene, toluene, chlorinated solvents, DMF, DMSO
[17] = test system: Candida albicans; experiment: MIC, tube dilution method; format: cell-based; details: malt extract-yeast extract medium
[18] = Growth promotion in chicks on rye diet, 11 days; format: in vivo; details: diet conc 100 ppm
Experimental: was tested in vivo by incorporation in the diet of growing chicks. One-day old cockerels, 15 birds per treatment were used. The chicks were maintained for 11 days on a feed containing about 55% rye grain, supplemented with vitamins, minerals, fat and protein sources. The high content of rye grain normally gives poor to moderate growth, and this diet is a standard one used for screening growth promoters and antibiotic feed additives. Penicillin (100 ppm) was used as a positive control. Feed/Gain ratio is grams feed consumed per gram of weight gained. Body weight ratio is the ratio of chick body weight at the end of the 11 day study to the initial body weight. The last column is the average gain per bird (in grams).

| Structure (SMILES) | MIC [2] [µg/mL] | MIC ([3]; strain 209P) [µg/mL] | MIC ([3]; strain (BX-1633)(PC)r) [µg/mL] | MIC ([3]; strain (EM)r) [µg/mL] | MIC ([3]; strain (EM, CM, SM, PC, TC)r) [µg/mL] | MIC ([3]; strain (EM, OM)r) [µg/mL] | MIC ([3]; strain (PC, EM, NM)r) [µg/mL] | MIC ([3]; strain (PC, TC, EM, LM)r 1) [µg/mL] | MIC ([3]; strain (PC, TC, EM, LM)r 2) [µg/mL] | MIC ([3]; strain (SM, STH)r) [µg/mL] | MIC ([3]; strain (STH)r) [µg/mL] | MIC ([3]; strain (TC, CP, PC)r) [µg/mL] | MIC ([3]; strain (TC, EM, LM, CP)r) [µg/mL] | MIC ([3]; strain Russell(PC)r) [µg/mL] | MIC ([3]; strain Smith) [µg/mL] | MIC [4] [µg/mL] | MIC [5] [µg/mL] | MIC [6] [µg/mL] | MIC [7] [µg/mL] | MIC [9] [µg/mL] | other results |
| --- | --- | --- | --- | --- | --- | --- | --- | --- | --- | --- | --- | --- | --- | --- | --- | --- | --- | --- | --- | --- | --- |
| CC(C)C[C@H]1NC(=O)[C@@H](NC(=O)c2ncccc2O)[C@@H](C)OC(=O)[C@H](c2ccccc2)N(C)C(=O)[C@H](C)NC(=O)[C@H]([C@@H](C)C(C)C)N(C)C(=O)CN(C)C(=O)[C@H]2C[C@@H](O)CN2C1=O [VG, viridogrisein] ({Picolinoyl(3-OH)}-T[dL][d(cisHyp)][Sar][X2]A[NMePhg]; ester 1-C) | 0.8 (≈ 0.91 µM) | 0.2 (≈ 0.228 µM) | 0.4 (≈ 0.455 µM) | 0.4 (≈ 0.455 µM) | 0.4 (≈ 0.455 µM) | 0.8 (≈ 0.91 µM) | 0.8 (≈ 0.91 µM) | 6.25 (≈ 7.11 µM) | 6.25 (≈ 7.11 µM) | 0.4 (≈ 0.455 µM) | 1.6 (≈ 1.82 µM) | 0.4 (≈ 0.455 µM) | 6.25 (≈ 7.11 µM) | 0.4 (≈ 0.455 µM) | 0.4 (≈ 0.455 µM) | 0.4 (≈ 0.455 µM) | > 25 | > 25 | 0.4 (≈ 0.455 µM) | > 25 | MIC [1]: 0.10; MIC ([8]; strain 209 P): 0.133 µg/mL (≈ 0.151 µM); MIC ([8]; strain (EM, CM, SM, PC, TC)r): 0.334 µg/mL (≈ 0.38 µM); MIC ([8]; strain (TC, CP, PC)r): 0.334 µg/mL (≈ 0.38 µM); MIC ([8]; strain Bx-1633(PC)r): 0.267 µg/mL (≈ 0.304 µM); MIC ([8]; strain Russell(PC)r): 0.267 µg/mL (≈ 0.304 µM); MIC ([8]; strain Smith): 0.267 µg/mL (≈ 0.304 µM); MIC ([10]; Staphylococcus sp. (PC)r): 0.4 µg/mL (≈ 0.455 µM); MIC ([10]; Staphylococcus sp.): 0.8 µg/mL (≈ 0.91 µM); MIC [11]: 0.2 µg/mL; MIC [12]: 1.56; MIC [13]: < 0.05; MIC [14]: 0.78; MIC [15]: > 25 µg/mL; solubility in organic solvents [16]: soluble; solubility in petroleum ether and hexane [16]: practically insoluble; solubility in water and ethyl ether [16]: hardly soluble; MIC [17]: > 25 µg/mL |
| CCC1NC(=O)C(C(C)C(C)C)N(C)C(=O)CN(C)C(=O)C2CC(O)CN2C(=O)C(CC(C)C)NC(=O)C(NC(=O)c2ncccc2O)C(C)OC(=O)C(c2ccccc2)N(C)C1=O (stereo not drawn) [NV III, neoviridogrisein III] ({Picolinoyl(3-OH)}-TL[Hyp][Sar][X1][Abu][NMePhg]; ester 1-C; configuration not given here) | 0.8 (≈ 0.896 µM) | 0.2 (≈ 0.224 µM) | 0.4 (≈ 0.448 µM) | 0.4 (≈ 0.448 µM) | 0.4 (≈ 0.448 µM) | 0.8 (≈ 0.896 µM) | 0.4 (≈ 0.448 µM) | 6.25 (≈ 7 µM) | 6.25 (≈ 7 µM) | 0.2 (≈ 0.224 µM) | 1.6 (≈ 1.79 µM) | 0.4 (≈ 0.448 µM) | 6.25 (≈ 7 µM) | 0.4 (≈ 0.448 µM) | 0.2 (≈ 0.224 µM) | 0.2 (≈ 0.224 µM) | > 25 | > 25 | 0.4 (≈ 0.448 µM) | > 25 | MIC ([10]; Staphylococcus sp. (PC)r): 0.8 µg/mL (≈ 0.896 µM); MIC ([10]; Staphylococcus sp.): 0.8 µg/mL (≈ 0.896 µM); MIC [11]: 0.4 µg/mL; MIC [15]: > 25 µg/mL; solubility in organic solvents [16]: soluble; solubility in petroleum ether and hexane [16]: practically insoluble; solubility in water and ethyl ether [16]: hardly soluble; MIC [17]: > 25 µg/mL |
| CC1(C)S[C@@H]2[C@H](NC(=O)Cc3ccccc3)C(=O)N2[C@H]1C(=O)O [Penicillin] | – | – | – | – | – | – | – | – | – | – | – | – | – | – | – | – | – | – | – | – | FEED/GAIN RATIO ([18]; 11 days, grams feed consumed per gram of weight gained): 1.197; AVG B.W.GAIN ([18]; average gain per bird, 11 days): 163.20 GMS; BODY WEIGHT RATIO ([18]; body weight at end of 11 days to initial): 5.012 |
